Results from patent US20040242974A1, “Treatment of refractory depression with an opiate antagonist and an antidepressant” (priority 2001, published 2004).
Where “and” joins values, the source holds several entries; their conditions need not be identical. Equal values may be shown once.

Legend:
[1] = system: depression; experiment: Clinical observation / patient report of response to medication (case reports); type: in vivo, human; settings: A person; for Response to antidepressants in the past: earlier episodes of unipolar depression, recurrent type
Experimental: Both antidepressants were stopped and they were then administered desipramine (a tricyclic antidepressant) up to 150 mg./day for 4 weeks. […] Desipramine was discontinued and a person was started on a course of electric shock treatment (ECT) on an outpatient basis. They received a total number of 8 treatments, administered 2 times per week.
(§1) Mrs. […] Lithium carbonate 300 mg. b.i.d. was added to the Prozac for one week, and afterward Prozac was increased over the next 4 weeks to 60 mg./day. […] In succession, they were tried on amitriptyline up to 300 mg./day with monitoring of medication blood levels, and venlafaxine up to 375 mg./day.

[2] = A person; lithium carbonate 300 mg b.i.d.
Experimental: as §1

[3] = system: refractory depression characterized by dissociation; experiment: Beck Depression Inventory (BDI) questionnaire measuring depression in the treated patient; type: in vivo, human
From the text: Although any known test for measuring depression may be used as an indicator or measure of depression, the Beck Depression Inventory (“BDI”) is a preferred test for the present invention. The Beck Depression Inventory is a questionnaire developed by Aaron T. Beck, M.D. in 1978 to measure the presence and severity of depression. This test provides an exemplary method of measuring depression over the course of treatment according to the present invention. This test can also be used for reassessing a patient during treatment. The reassessment may be used to determine choice and dosage of antidepressant. The second edition of the Beck Depression Inventory is a 21-item questionnaire with each item rated on a four-point Likert scale (0-3) with total scores ranging from 0 to 63. A higher score indicates a more severe level of depression. Generally, a total score below 10 indicates no depression; a score from 10-16 indicates mild depression; 17-29 indicates moderate depression; and 30-63 indicates severe depression. According to the present invention, a score of about 10 or above would indicate diagnosis and treatment according to the present invention, with the patient more preferably presenting a BDI score of about 17 or above. A BDI score of less than about 10 is clinically non-significant. Eleven items of the BDI specifically identify how a depressed person thinks and feels about himself or herself. […] In paraphrased form they are: feeling disappointment in oneself; critical of oneself; suicidal thoughts; sadness; discouraged about the future; feelings of being punished; guilty; feeling like a failure; feeling a lack of satisfaction; feeling old/unattractive/ugly; and loss of interest in people. See S. Ramirez, supra.

[4] = system: refractory depression characterized by dissociation; experiment: Glover Numbing Scale (GNS) self-report questionnaire measuring numbness/dissociation in the treated patient; type: in vivo, human
From the text: The Glover Numbing Scale was constructed to measure symptoms associated with the numb responses, and provides an adequate measure for determining whether a patient is in a dissociated state. Both males and females with major depression evidenced a bimodal distribution of scores on the GNS with a distance of three standard deviations between their respective means. The GNS has identified a unique subgroup within the population of people diagnosed with major depression who manifest the unique phenomenological experience and associated symptoms of having no feelings. […] By evaluating a patient with the Glover Numbing Scale prior to administration of an opiate antagonist, and reassessing the patient after treatment, one of skill in the art can readily determine if the opiate antagonist is reversing or alleviating dissociation.
In one embodiment, the Glover Numbing Scale is a 35-item self-report questionnaire that systematically measures the frequency of experiences associated with “numbness,” an essential symptom of dissociation. Each item is rated on a seven-point scale by the patient, with scores corresponding to the following responses: 1, never; 2, very rarely; 3, rarely; 4, occasionally; 5, frequently, 6, very frequently; and 7, always. The highest possible score according to the Glover Numbing Scale is 245 (35 items by 7 points per item); a higher score indicates a more persistent degree of numbness and associated symptoms of dissociation. […] See S. Ramirez, supra at 194-95. According to the present invention, a Glover Numbing Scale score greater than about 100 should be considered consistent with the presence of dissociation. […] In another embodiment, a GNS score less than about 60 can be considered clinically non-significant.
That is, according to one embodiment of the present invention, a patient evaluated according to the Beck Depression Inventory to have a total BDI of about 10 or more, would be diagnosed as suffering from depression. According to the present invention, the depressed patient would then be evaluated according to the Glover Numbing Scale to assess the refractory nature of the patient's depression. If the patient scored about 100 or above, and positively to any of the eight salient items on the GNS, the patient is then affirmatively diagnosed as suffering from refractory depression characterized by dissociation according to one embodiment of the present invention. According to the present invention, the diagnosis may be made immediately after evaluating the patient according to the Glover Numbing Scale in conjunction with the Beck Depression Inventory in the context of an initial diagnostic assessment. The 35 items of the Glover Numbing Scale (GNS) describe the breadth of problems that can be associated with dissociation. Eight of the 35 items, however, uniquely discriminate dissociative experiences from symptoms of depression at a very high degree of probability. It is recommended that these eight items be scored separately at the time of the initial evaluation, and be used to monitor the patient's response to treatment at regular intervals until the patient is in full remission or has achieved the maximum beneficial response to medication.
At the time of remission the patient's responses to all of the other […] items on the GNS can be individually assessed by the clinician to ascertain if any residual symptoms are present which may require further attention. […]

[5] = system: patient; experiment: Side effects reported by the patient during treatment; type: in vivo, human; settings: A person; nalmefene 50 to 150 mg b.i.d.
Experimental: They were reassessed with the BDI and the GNS. One week later a person was able to identify their mood as sad and lonely. […] Their BDI was now scored at 20 and their GNS score fell to 70.
It was decided to maintain the patient on amitriptyline while introducing nalmefene 50 mg. b.i.d. Four days later the dose of nalmefene was doubled. A person was monitored for side effects and changes of mood, using the eight salient items of the GNS and the eleven salient items of the BDI as guides. Mrs. […] During each visit the dose was […] 50 mg. to a final dose of 200 mg./day. Mrs.

[6] = lithium carbonate 300 mg b.i.d. added to Prozac, Prozac increased to 60 mg/day over 4 weeks
[7] = A person, SAM-e 400 mg in divided doses, 800 mg five days later, started after the nalmefene course, one week afterward

## CC(NC(C)(C)C)C(=O)c1cccc(Cl)c1 (stereo not drawn) [Bupropion]
[1]; Bupropion (sustain released) up to 300 mg/day added to paxil, other than some improvement in level of energy
  Clinical response: little benefit

## O=C([O-])[O-].[Li+].[Li+] [Lithium carbonate]
[1]; [6]
  Clinical response: lack of response
[2]
  Serum lithium levels: 0.6 and 0.7

## Fc1ccc([C@@H]2CCNC[C@H]2COc2ccc3c(c2)OCO3)cc1 [Paxil]
[1]; Paxil up to 60 mg/day, unsuccessfully administered
  Clinical response: mild to moderate calming effect
[1]
  Response to antidepressants in the past: good responses

## CNCCC(Oc1ccc(C(F)(F)F)cc1)c1ccccc1 (stereo not drawn) [Prozac]
[1]; initial treatment with Prozac, otherwise unchanged
  Clinical response: reducing irritability
[1]; [6]
  Clinical response: lack of response

## C[S+](CC[C@H](N)C(=O)[O-])C[C@H]1O[C@@H](n2cnc3c(N)ncnc32)[C@H](O)[C@@H]1O (stereo partly drawn) [SAM-e]
[1]; SAM-e 400 then 800 mg, started after the nalmefene course, one week afterward
  Clinical response (mood and energy): marked improvement in mood and energy level
[3]; [7]
  BDI score: 6
[4]; [7]
  GNS score: 40

## CN(C)CCC=C1c2ccccc2CCc2ccccc21 [amitriptyline]
[1]; amitriptyline maintained while nalmefene introduced (50 mg b.i.d., doubled after four days)
  Clinical response (antidepressant effect): began to feel the antidepressant effect for the first time
[1]; amitriptyline up to 300 mg/day, calming effect with some reduction of sadness and emptiness
  Clinical response: improved their level of energy

## CNCCCN1c2ccccc2CCc2ccccc21 [desipramine]
[1]; desipramine up to 150 mg/day for 4 weeks, remained essentially depressed
  Clinical response: some decrease of crying spells
[1]
  Response to antidepressants in the past: good responses

## C=C1CC[C@@]2(O)[C@H]3Cc4ccc(O)c5c4[C@@]2(CCN3CC2CC2)[C@H]1O5 [nalmefene]
[1]; nalmefene up to 150 mg b.i.d., one week later
  Clinical response (feelings): no longer experienced any lack of feelings
[1]; one week after nalmefene 200 mg b.i.d. reached, with amitriptyline
  Clinical response (patient report): felt their usual self once again
[3]; A person (Example 1), nalmefene 50 mg b.i.d. 3 days, 100 mg b.i.d. 4 days, then 150 mg b.i.d., one week later, score before treatment 23
  BDI score: 20
[3]; A person (Example 2), one week after nalmefene 200 mg b.i.d. reached, maintained on amitriptyline (final 200 mg/day), score before 24
  BDI score: 5
[5]
  Side effects of drowsiness and tiredness: mild and transient
[4]; A person (Example 1), nalmefene 50 mg b.i.d. 3 days, 100 mg b.i.d. 4 days, then 150 mg b.i.d., one week later, score before treatment 142
  GNS score: 70
[4]; A person (Example 2), one week after nalmefene 200 mg b.i.d. reached, maintained on amitriptyline (final 200 mg/day), score before 148
  GNS score: 38
[4]; A person, nalmefene 200 mg b.i.d. with amitriptyline
  Salient items of the GNS: not to have been experienced
[4]; A person, nalmefene up to 150 mg b.i.d., during the past week
  Salient items of the GNS: not have been experienced

## COc1ccc(C(CN(C)C)C2(O)CCCCC2)cc1 (stereo not drawn) [venlafaxine]
[1]; venlafaxine up to 375 mg/day, calming effect with some reduction of sadness and emptiness
  Clinical response: improved their level of energy
